Measurements as given in article PMC11459959, “Discovery of new acetamide derivatives of 5-indole-1,3,4-oxadiazol-2-thiol as inhibitors of HIV-1 Tat-mediated viral transcription” (Antimicrobial Agents and Chemotherapy, 2024).
Like-named read-outs stand apart in the source and are kept apart here.

Legend:
Format in all cases: cell-based
HIV-1NL4-3 [1] = test: HIV-1 replication in PBMCs (p24 […]); conditions: Table S1, WT virus, 10-fold serial dilution
Experimental: (§1) The p24 level from the cell supernatant was subsequently determined using a p24 […] kit (PerkinElmer). In parallel, the cell viability was determined without viral infection because of the viral cytopathic effect. […] In parallel, cell viability was determined. The data (A and B) are presented as the mean ± SD (n = 3). (C) PBMCs (4 × 10^5) infected with HIV-AD8 at an MOI of 0.1 were treated with 1.5 µM of the compounds or ARVs for 3 days. The levels of p24 and cell viability were subsequently determined. (D) J1.1 cells were cultured with the compounds ([…]) under 50 ng/mL phorbol myristate acetate (PMA) treatment for 2 days. The level of p24 was subsequently determined. (E) J-Lat 6.3 cells were treated with the compounds (1.5 µM) under 1 µg/mL of PMA for 2 days. The GFP-positive cell population was analyzed using flow cytometry. The data are represented as a value relative to the DMSO-treated vehicle (D) and a percent of the GFP^+ cell population (E) as mean ± SD (n = 3).
(§2) The inhibitory effects of the compounds on viral replication were determined with some minor modifications, as previously described ([12], [62]). […] PBMCs (4 × 10^5) pre-activated with PHA-M for 3 days were washed with fresh media to remove excess PHA-M and subsequently infected with HIV-1NL4-3 or HIV-1AD8 or PIs-resistant HIV-1 strains as A3.01 infection. After infection, the infectious media were replaced with fresh media supplemented with international 10 units (IU)/mL of IL-2 and the indicated compounds. At 72 h after infection, the inhibitory effect of the compounds on viral replication was determined by measuring the p24 amount, an HIV capsid protein, using an HIV-1 p24 […] kit (PerkinElmer, Waltham, MA, USA). Cell viability was determined as described above. The inhibitory effects on provirus reversing in J1.1 and J-Lat 6.3 cells were determined as previously described ([12], [41], [63]) with some minor modifications. Briefly, 5 × 10^4 persistently HIV-1-infected J1.1 or J-Lat 6.3 cells were cultured in either the presence or absence of the compounds at a final concentration of 1.5 µM and treated with PMA (50 ng/mL for J1.1 cells, 1 µg/mL for J-Lat 6.3 cells). Two days after treatment, the levels of viral production were determined using p24 […] for J1.1 cells and flow cytometry analysis for GFP-expressing J-Lat 6.3 cells.

[2] = test system: PI-resistant HIV-1 strain 11800; test: microbe, parasite or virus in culture
Description: (§3) The Tzm-bl-derived dual Tat reporter; TZM-bl/Tat/Rluc (bl-DTR) cells were established from TZM-bl cells using two Dox-inducible lentiviral expression cassettes cloned with Flag-tagged Tat86 and the R-Luc gene, as described in our previous study ([11]). TZM-bl, A3.01, J1.1, and J-Lat 6.3 cells as well as the HIV-1 molecular clone pNL4-3, pNL(AD8), ARV-resistant HIV-1 strains, and HIV-1NL43-IRES-eGFP (pBR43IeG-nef^+, gifted by Dr. Frank Kirchhoff) ([52]) were provided by the National Institute of Health HIV Reagent Program (NIH, Bethesda, MD, USA). HeLa (CCL-2) and 293T (CRL-3216) cell lines were purchased from the American Type Culture Collection (ATCC, Manassas, VA, USA). The bl-DTR, TZM-bl, HeLa, and 293T cells were cultured in Dulbecco’s modified Eagle’s medium supplemented with 1% penicillin–streptomycin and 10% (vol/vol) heat-inactivated fetal bovine serum (all from Gibco-BRL, Gaithersburg, MD, USA), and 1 µg/mL of puromycin and 200 µg/mL of zeocin were additionally supplemented for the bl-DTR cells. PBMCs were purchased from AllCells (Alameda, CA, USA) and cultured as previously described ([12]). The information on ARV-resistant HIV-1 strains was described in previous reports as follows: NNRTI-resistant 12241 and 12243 ([53]); NRTI-resistant 7396, 7406, and 7407 ([54]); INSTI-resistant 11847 and 11849 ([55], [56]); and PI-resistant 11800 and 11803 ([57]). Each molecular HIV-1 clone was transfected to 293T cells, as previously described ([58]), to obtain infectious HIV-1 particles. Virus-containing cell culture supernatants were collected 3 days after transfection, and filtered through a 0.45-µm membrane filter (Millipore Sigma, Burlington, MA, USA) to remove cell debris. The viral titration was performed as described previously ([59]) with some minor modifications. In brief, 1 × 10^4 TZM-bl cells seeded in 96-well plates were infected with 200 µL of virus-containing medium diluted serially twofold. The incubation was for 2 days and the experiment was performed in triplicate; the infection time minimized the virus spread ([59]). The titration of the infectious viral particles was performed with a ß-Gal staining assay using the ßeta-Galactosidase Staining Kit (Mirus Bio, Madison, WI, USA) following the manufacturer’s protocols. In brief, the infected cells were washed with phosphate-buffered saline (PBS) and fixed using a Cell Fixative Working solution. The cells were washed with PBS and stained using the Cell Staining Working Solution containing X-gal. The infected blue-colored cells were counted under a microscope (100× magnification). The infectious virus titer was determined as a mean value of blue-colored cells count × dilution factor and used for determining the multiplicity of infection (MOI) in each infection experiment.
(§4) The inhibitory effects of the compounds on viral replication were determined with some minor modifications, as previously described ([12], [62]). […] PBMCs (4 × 10^5) pre-activated with PHA-M for 3 days were washed with fresh media to remove excess PHA-M and subsequently infected with HIV-1NL4-3 or HIV-1AD8 or PIs-resistant HIV-1 strains as A3.01 infection. After infection, the infectious media were replaced with fresh media supplemented with international 10 units (IU)/mL of IL-2 and the indicated compounds. At 72 h after infection, the inhibitory effect of the compounds on viral replication was determined by measuring the p24 amount, an HIV capsid protein, using an HIV-1 p24 […] kit (PerkinElmer, Waltham, MA, USA). Cell viability was determined as described above. The inhibitory effects on provirus reversing in J1.1 and J-Lat 6.3 cells were determined as previously described ([12], [41], [63]) with some minor modifications.

[3] = test system: PI-resistant HIV-1 strain 11803; test: microbe, parasite or virus in culture
Description: as §3, §4

[4] = test system: HIV-1NL4-3 IRES-eGFP-nef+; test: eGFP-encoding HIV-1 infection of TZM-bl cells; conditions: 9, 10, 13 1.5 μM, 20, 21, 22 4 μM, seliciclib 10 µM, triptolide 5 nM, DTG 2 nM, EFV 2 nM, 2 days
Experimental: Fig 4 (A) Comparison of the chemical structures between prominent derivatives (9, 10, and 13) and non-functional derivatives (20, 21 and 22). (B) bl-DTR cells were treated with serial dilutions of each compound upon Dox for 24 h. The activities of F-Luc and R-Luc were determined using the Dual-Glo -Luciferase assay system. (C) TZM-bl cells were infected with the HIV-1NL4-3 strain at an MOI of 1 upon treatment of compounds. At 48 h after infection, the viral infectivity and cell viability were determined as described above (Fig. 1). (D) TZM-bl cells were infected with HIV-1NL4-3 IRES-eGFP virus along with the compound treatment. Two days later, GFP-expressing cells were observed by fluorescence microscopy (100× magnification). […] At 48 h after infection, the β-gal activity indicating viral infectivity was determined using the β-gal Enzyme Assay kit. F-Luc activity and cell viability were determined as described above (Fig. 4C). (C and E) The dose-response curves show the relative activity compared with that of the DMSO vehicle (mean ± SD; n = 3).

HIV-1NL4-3 [5] = test: HIV-1 replication in A3.01 cells (p24 […]); conditions: fivefold serial dilutions, 3 days
Experimental: as §1, §2

HIV-1 transcripts = test: RNA-seq of HIV-1 transcripts in infected TZM-bl cells; conditions: HIV-1NL4-3 MOI 1, 1.5 µM, 2 days
Experimental: At 48 h after infection, the total RNA was extracted using the Maxwell RSC simplyRNA Cells Kit (Promega) according to the manufacturer’s instructions. RNA integrity was evaluated as RNA integrity number >6 using the Agilent 2100 Bio-analyzer (Agilent Technologies, Santa Clara, CA, USA). The cDNA libraries were constructed using TruSeq Stranded mRNA Sample Preparation Kit (Illumina, San Diego, CA, USA) according to the manufacturer’s instructions. Subsequently, these cDNA libraries were sequenced on the Illumina sequencing platform (NovaSeq6000; Illumina) and 150 bp paired-end reads were generated. Trimmomatic (v.0.32) was used to eliminate low-quality reads and adapter sequences from the sequencing data ([64]). Subsequently, the filtered reads were aligned to the HIV-1 genome (accession: AF324493.2) using STAR (v.2.3.0) ([65]). RT-qPCR analyses were performed as previously described ([66]) with some minor modifications. […] After infection, the infected cells were treated with 1.5 µM of the compounds. Forty-eight hours after treatment, the viral mRNA was isolated, converted to cDNA, and quantified through RT-qPCR on a 7500 Real-Time PCR System (Applied Biosystems) using the Power SYBR Green PCR Master Mix (Applied Biosystems). The comparative cycle threshold (Ct) method was used to analyze relative changes (Δ) in gene expression. The ΔCt values were determined using a 7500 Real-Time PCR System Software (Applied Biosystems) normalizing with gapdh, and the gene expression was calculated using the ΔΔCt-method. The primers used in this assay are the following: gag forward, 5′-[…]-3′, gag reverse, 5′-[…]-3′; gapdh forward, 5′-[…]-3′, gapdh reverse, 5′-[…]-3′.

[6] = Human immunodeficiency virus 1, PBMC

## CC(C)CN(C[C@@H](O)[C@H](Cc1ccccc1)NC(=O)O[C@H]1CO[C@H]2OCC[C@H]21)S(=O)(=O)c1ccc(N)cc1 [DRV, darunavir]
HIV-1NL4-3 [1]; [6]
  EC50: < 1 nM
[2]; [6]
  EC50: 150 ± 20 nM
[3]; [6]
  EC50: 30 ± 10 nM

## Cc1[nH]c2ccc(-c3nnc(S(=O)(=O)C(C)C(=O)N4CCCCC4)o3)cc2c1C (stereo not drawn) [Compound 20, 2-((5-(2,3-Dimethyl-1H-indol-5-yl)-1,3,4-oxadiazol-2-yl)sulfonyl)-1-(piperidin-1-yl)propan-1-one]
[4]
  inhibition of viral-expressed eGFP signal: did not
HIV-1NL4-3 [5]
  inhibition of viral replication (in words): did not
HIV-1 transcripts
  read counts of transcripts mapped to the HIV-1 genome: not observed

## CC(C)(C)NC(=O)[C@@H]1C[C@@H]2CCCC[C@@H]2CN1C[C@@H](O)[C@H](Cc1ccccc1)NC(=O)[C@H](CC(N)=O)NC(=O)c1ccc2ccccc2n1 [SQV, sequinavir]
HIV-1NL4-3 [1]; read-out: EC50
  EC50: 8.24 ± 0.15 nM
[2]; PI-resistant 11800, PBMCs, 10-fold serial dilution, read-out: EC50
  EC50: 10 nM
[3]; PI-resistant 11803, PBMCs, 10-fold serial dilution, read-out: EC50
  EC50: 1240 ± 130 nM
